Results published in US20240423992A1, “BIOMARKERS FOR TREATING LIVER DISORDERS WITH THR-B AGONISTS AND RELATED USES” (Madrigal Pharmaceuticals, Inc., priority 2023, published 2024).

Key:
[1] = system: patients with Nonalcoholic Steatohepatitis; assay: Phase 3 trial in Nonalcoholic Steatohepatitis (Example 2): sex hormone levels; format: in vivo, human; conditions: for Estradiol (female) LS Mean Difference / Estradiol (male) LS Mean Difference / FSH (female) LS Mean Difference / FSH (male) LS Mean Difference / Free testosterone (female) LS Mean Difference / Free testosterone (male) LS Mean Difference / LH (female) LS Mean Difference / LH (male) LS Mean Difference / SHBG (female) LS Mean Difference in % CFB / SHBG (female) LS Mean Difference in CFB / SHBG (male) LS Mean Difference in % CFB / SHBG (male) LS Mean Difference in CFB / SHBG LS Mean Difference in % CFB / SHBG LS Mean Difference in CFB / Testosterone (female) LS Mean Difference / Testosterone (male) LS Mean Difference / Estradiol (female) LS Mean CFB (SE) / Estradiol (male) LS Mean CFB (SE) / FSH (female) LS Mean CFB (SE) / FSH (male) LS Mean CFB (SE) / Free testosterone (female) LS Mean CFB (SE) / Free testosterone (male) LS Mean CFB (SE) / LH (female) LS Mean CFB (SE) / LH (male) LS Mean CFB (SE) / SHBG (female) LS Mean % CFB (SE) / SHBG (female) LS Mean CFB (SE) / SHBG (male) LS Mean % CFB (SE) / SHBG (male) LS Mean CFB (SE) / SHBG LS Mean % CFB (SE) / SHBG LS Mean CFB (SE) / Testosterone (female) LS Mean CFB (SE) / Testosterone (male) LS Mean CFB (SE): Week 52
Description: A randomized, double-blind, placebo-controlled Phase 3 trial was conducted. Patients were randomly assigned to receive resmetirom 80 mg, resmetirom 100 mg, or placebo administered orally once daily. Screening biopsy results were used as baseline for histologic variables and a second biopsy was performed at Week 52.

[2] = system: adults with nonalcoholic fatty liver disease (NAFLD)/presumed nonalcoholic steatohepatitis (NASH); assay: 52-week Phase 3 trial (Example 1): hepatic fat by MRI-PDFF; format: in vivo, human
Description: A 52-week randomized, double-blind, placebo-controlled Phase 3 trial was conducted to evaluate the safety and effect of resmetirom, an oral, once-daily, liver-targeted thyroid hormone receptor-β selective agonist, on multiple biomarkers in adults with nonalcoholic fatty liver disease (NAFLD)/presumed nonalcoholic steatohepatitis (NASH). Patients were randomized to three double-blind arms (100 mg resmetirom, 80 mg resmetirom, or placebo) or one open-label arm (100 mg resmetirom). Common concomitant medications across the 4 arms were antidiabetes drugs (such as glucagon-like peptide-1 receptor agonists (GLP-1 RAs), metformin, pioglitazone, and sodium/glucose cotransporter-2 inhibitors (SGLT2i)) and drugs to manage dyslipidemia (statins).

CC(C)c1cc(Oc2c(Cl)cc(-n3nc(C#N)c(=O)[nH]c3=O)cc2Cl)n[nH]c1=O [Resmetirom, 2-[3,5-dichloro-4-[(6-oxo-5-propan-2-yl-1H-pyridazin-3-yl)oxy]phenyl]-3,5-dioxo-1,2,4-triazine-6-carbonitrile]
Estradiol (female) LS Mean Difference ([1]; Resmetirom 80 mg from PBO): 15.9 ng/L | Estradiol (male) LS Mean Difference ([1]; Resmetirom 80 mg from PBO): 9.0 ng/L | FSH (female) LS Mean Difference ([1]; Resmetirom 80 mg from PBO): 0.79 mIU/mL | FSH (male) LS Mean Difference ([1]; Resmetirom 80 mg from PBO): 1.1 mIU/mL | Free testosterone (female) LS Mean Difference ([1]; Resmetirom 80 mg from PBO): 0 nmol/L | Free testosterone (male) LS Mean Difference ([1]; Resmetirom 80 mg from PBO): 0.02 nmol/L | LH (female) LS Mean Difference ([1]; Resmetirom 80 mg from PBO): −0.33 mIU/mL | LH (male) LS Mean Difference ([1]; Resmetirom 80 mg from PBO): 1.8 mIU/mL | SHBG (female) LS Mean Difference in % CFB ([1]; Resmetirom 80 mg from PBO): 177.4% | SHBG (female) LS Mean Difference in CFB ([1]; Resmetirom 80 mg from PBO): 73.3 nmol/L | SHBG (male) LS Mean Difference in % CFB ([1]; Resmetirom 80 mg from PBO): 107.3% | SHBG (male) LS Mean Difference in CFB ([1]; Resmetirom 80 mg from PBO): 40.4 nmol/L | SHBG LS Mean Difference in % CFB ([1]; Resmetirom 80 mg from PBO): 148.5% | SHBG LS Mean Difference in CFB ([1]; Resmetirom 80 mg from PBO): 58.9 nmol/L | Testosterone (female) LS Mean Difference ([1]; Resmetirom 80 mg from PBO): 0.15 µg/L | Testosterone (male) LS Mean Difference ([1]; Resmetirom 80 mg from PBO): 2.2 µg/L | Estradiol (female) LS Mean CFB (SE) ([1]; Resmetirom 80 mg): 17.7 (8.0) ng/L | Estradiol (male) LS Mean CFB (SE) ([1]; Resmetirom 80 mg): 8.9 (1.3) ng/L | FSH (female) LS Mean CFB (SE) ([1]; Resmetirom 80 mg): −0.54 (0.89) mIU/mL | FSH (male) LS Mean CFB (SE) ([1]; Resmetirom 80 mg): 1.1 (0.24) mIU/mL | Free testosterone (female) LS Mean CFB (SE) ([1]; Resmetirom 80 mg): 0 (0.001) nmol/L | Free testosterone (male) LS Mean CFB (SE) ([1]; Resmetirom 80 mg): 0.04 (0.009) nmol/L | LH (female) LS Mean CFB (SE) ([1]; Resmetirom 80 mg): −0.93 (0.69) mIU/mL | LH (male) LS Mean CFB (SE) ([1]; Resmetirom 80 mg): 1.7 (0.30) mIU/mL | SHBG (female) LS Mean % CFB (SE) ([1]; Resmetirom 80 mg): 193.0 (15.3) % | SHBG (female) LS Mean CFB (SE) ([1]; Resmetirom 80 mg): 74.1 (6.0) nmol/L | SHBG (male) LS Mean % CFB (SE) ([1]; Resmetirom 80 mg): 108.0 (11.2) % | SHBG (male) LS Mean CFB (SE) ([1]; Resmetirom 80 mg): 41.9 (4.2) nmol/L | SHBG LS Mean % CFB (SE) ([1]; Resmetirom 80 mg): 157.5 (10.2) % | SHBG LS Mean CFB (SE) ([1]; Resmetirom 80 mg): 60.2 (4.0) nmol/L | Testosterone (female) LS Mean CFB (SE) ([1]; Resmetirom 80 mg): 0.15 (0.019) ug/L | Testosterone (male) LS Mean CFB (SE) ([1]; Resmetirom 80 mg): 2.6 (0.26) ug/L | Estradiol (female) LS Mean Difference ([1]; Resmetirom 100 mg from PBO): 28.8 ng/L | Estradiol (male) LS Mean Difference ([1]; Resmetirom 100 mg from PBO): 11.2 ng/L | FSH (female) LS Mean Difference ([1]; Resmetirom 100 mg from PBO): 2.0 mIU/mL | FSH (male) LS Mean Difference ([1]; Resmetirom 100 mg from PBO): 1.7 mIU/mL | Free testosterone (female) LS Mean Difference ([1]; Resmetirom 100 mg from PBO): 0 nmol/L | Free testosterone (male) LS Mean Difference ([1]; Resmetirom 100 mg from PBO): 0.01 nmol/L | LH (female) LS Mean Difference ([1]; Resmetirom 100 mg from PBO): 1.4 mIU/mL | LH (male) LS Mean Difference ([1]; Resmetirom 100 mg from PBO): 2.0 mIU/mL | SHBG (female) LS Mean Difference in % CFB ([1]; Resmetirom 100 mg from PBO): 236.2% | SHBG (female) LS Mean Difference in CFB ([1]; Resmetirom 100 mg from PBO): 93.2 nmol/L | SHBG (male) LS Mean Difference in % CFB ([1]; Resmetirom 100 mg from PBO): 173.3% | SHBG (male) LS Mean Difference in CFB ([1]; Resmetirom 100 mg from PBO): 59.3 nmol/L | SHBG LS Mean Difference in % CFB ([1]; Resmetirom 100 mg from PBO): 208.4% | SHBG LS Mean Difference in CFB ([1]; Resmetirom 100 mg from PBO): 79.4 nmol/L | Testosterone (female) LS Mean Difference ([1]; Resmetirom 100 mg from PBO): 0.19 µg/L | Testosterone (male) LS Mean Difference ([1]; Resmetirom 100 mg from PBO): 3.0 µg/L | Estradiol (female) LS Mean CFB (SE) ([1]; Resmetirom 100 mg): 30.6 (8.3) ng/L | Estradiol (male) LS Mean CFB (SE) ([1]; Resmetirom 100 mg): 11.0 (1.3) ng/L | FSH (female) LS Mean CFB (SE) ([1]; Resmetirom 100 mg): 0.63 (0.92) mIU/mL | FSH (male) LS Mean CFB (SE) ([1]; Resmetirom 100 mg): 1.7 (0.24) mIU/mL | Free testosterone (female) LS Mean CFB (SE) ([1]; Resmetirom 100 mg): 0 (0.001) nmol/L | Free testosterone (male) LS Mean CFB (SE) ([1]; Resmetirom 100 mg): 0.03 (0.009) nmol/L | LH (female) LS Mean CFB (SE) ([1]; Resmetirom 100 mg): 0.80 (0.72) mIU/mL | LH (male) LS Mean CFB (SE) ([1]; Resmetirom 100 mg): 1.9 (0.30) mIU/mL | SHBG (female) LS Mean % CFB (SE) ([1]; Resmetirom 100 mg): 251.8 (16.0) % | SHBG (female) LS Mean CFB (SE) ([1]; Resmetirom 100 mg): 94.0 (6.3) nmol/L | SHBG (male) LS Mean % CFB (SE) ([1]; Resmetirom 100 mg): 174.0 (10.9) % | SHBG (male) LS Mean CFB (SE) ([1]; Resmetirom 100 mg): 60.8 (4.1) nmol/L | SHBG LS Mean % CFB (SE) ([1]; Resmetirom 100 mg): 217.4 (10.3) % | SHBG LS Mean CFB (SE) ([1]; Resmetirom 100 mg): 80.7 (4.1) nmol/L | Testosterone (female) LS Mean CFB (SE) ([1]; Resmetirom 100 mg): 0.19 (0.020) ug/L | Testosterone (male) LS Mean CFB (SE) ([1]; Resmetirom 100 mg): 3.5 (0.25) ug/L | Change in sex hormones from baseline ([1]; in vivo): unchanged, except for SHBG increases | hepatic fat reduction, 80 mg compared with 100 mg ([2]; 80 mg resmetirom, in general): less effective than 100 mg resmetirom | hepatic fat (MRI-PDFF), change from baseline ([2]; Week 52, all key patient subgroups): reduced hepatic fat from baseline | hepatic fat reduction by subgroup ([2]; weight gain ≥5% or <120% increase in SHBG): lower hepatic fat reduction | hepatic fat reduction by subgroup ([2]; weight loss ≥5% or ≥120% increase from baseline in SHBG): greater reduction in hepatic fat
